Test results: PubChem BioAssay AID248 (DTP/NCI, 2004)
Values joined by “and” are separate entries in the source; they are usually repeats but may differ in a detail not shown here. Equal entries are not always repeated. Toxic doses and inconclusive results are not listed.

System: L1210 leukemia ip in BDF1 mice, survival T/C
Experiment: NCI In Vivo Anticancer Drug Screen. Data for tumor model L1210 Leukemia (intraperitoneal) in B6D2F1 (BDF1) mice
Conditions: endpoint: mean survival time, higher = longer survival
Outline: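 Ratio derived from survival: compound-dosed mice over vehicle-dosed mice, all bearing a transplantable tumor.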

[1] = dose: 100.0 mg/kg/injection, schedule: Q01DX009 (ip), vehicle: saline with Tween-80
[2] = dose: 200.0 mg/kg/injection, schedule: Q01DX009 (ip), vehicle: saline with Tween-80
[3] = dose: 400.0 mg/kg/injection, schedule: Q01DX009 (ip), vehicle: saline with Tween-80
[4] = dose: 75.0 mg/kg/injection, schedule: Q01DX001 (ip), vehicle: saline
[5] = dose: 100.0 mg/kg/injection, schedule: Q04DX003 (ip), vehicle: saline with Tween-80
[6] = dose: 200.0 mg/kg/injection, schedule: Q04DX003 (ip), vehicle: saline with Tween-80
[7] = dose: 400.0 mg/kg/injection, schedule: Q04DX003 (ip), vehicle: saline with Tween-80
[8] = dose: 100.0 mg/kg/injection, schedule: Q01DX009 (ip), vehicle: Klucel (hydroxypropylcellulose) (HPC)

## O=[N+]([O-])c1ccc(OCc2ccccc2)nc1
[1]
  T/C: 104 % of control
[2]
  T/C: 97 % of control
[3]
  T/C: 93 % of control

## COc1cc2c(cc1OC)-c1cc3cc(OC)c(OC)cc3c(C)[n+]1CC2 (tested in a mixture with another compound)
dose: 12.5 mg/kg/injection, schedule: Q04DX002 (ip), vehicle: Klucel (hydroxypropylcellulose) (HPC)
  T/C: 110 % of control
dose: 25.0 mg/kg/injection, schedule: Q01DX009 (ip), vehicle: saline with Tween-80
  T/C: 104 % of control
dose: 25.0 mg/kg/injection, schedule: Q04DX002 (ip), vehicle: Klucel (hydroxypropylcellulose) (HPC)
  T/C: 106 % of control
dose: 50.0 mg/kg/injection, schedule: Q01DX009 (ip), vehicle: saline with Tween-80
  T/C: 107 % of control
dose: 50.0 mg/kg/injection, schedule: Q04DX002 (ip), vehicle: Klucel (hydroxypropylcellulose) (HPC)
  T/C: 95 % of control

## O=C1N(c2ccccc2)C(c2ccccc2)SC1(Cc1ccc(Br)cc1)c1ccccc1 (configuration not stated)
dose: 100.0 mg/kg/injection, schedule: Q01DX001 (ip), vehicle: saline with Tween-80
  T/C: 100 % of control
dose: 200.0 mg/kg/injection, schedule: Q01DX001 (ip), vehicle: saline with Tween-80
  T/C: 98 % of control
dose: 400.0 mg/kg/injection, schedule: Q01DX001 (ip), vehicle: saline with Tween-80
  T/C: 94 % of control

## CC1=C/C(O)CC(=O)Cc2nc(co2)C(=O)N2CCC=C2C(=O)OC(C(C)C)C(C)/C=C\C(=O)NC/C=C\1 (configuration not stated)
dose: 0.5 micrograms/kg/injection, schedule: Q01DX009 (ip), vehicle: saline
  T/C: 95 % of control
dose: 1.0 micrograms/kg/injection, schedule: Q01DX009 (ip), vehicle: saline
  T/C: 93 % of control
dose: 2.0 micrograms/kg/injection, schedule: Q01DX009 (ip), vehicle: saline
  T/C: 104 % of control
dose: 4.0 micrograms/kg/injection, schedule: Q01DX009 (ip), vehicle: saline
  T/C: 104 % of control

## Nc1n[nH]c2cc(=O)[nH]c(O)c12
[4]
  T/C: 98 % of control
dose: 150.0 mg/kg/injection, schedule: Q01DX001 (ip), vehicle: saline
  T/C: 93 % of control
dose: 300.0 mg/kg/injection, schedule: Q01DX001 (ip), vehicle: saline
  T/C: 94 % of control

## CCC(=O)Nc1ccc(Cl)c(Cl)c1
[5]
  T/C: 95 % of control
[6]
  T/C: 93 % of control
[7]
  T/C: 92 % of control

## O=C(CCCc1ccc(N(CCCl)CCCl)cc1)NC1CCCC1
dose: 4.0 mg/kg/injection, schedule: Q12HX018 (ip), vehicle: other
  T/C: 103 % of control
dose: 6.0 mg/kg/injection, schedule: Q12HX018 (ip), vehicle: other
  T/C: 98 % of control
dose: 8.0 mg/kg/injection, schedule: Q12HX018 (ip), vehicle: other
  T/C: 103 % of control

## O=c1c(N=Nc2ccc(Br)cc2)c(O)n(-c2ccccc2Cl)c(=S)n1-c1ccccc1
dose: 75.0 mg/kg/injection, schedule: Q01DX001 (ip), vehicle: Klucel (hydroxypropylcellulose) (HPC)
  T/C: 90 % of control
dose: 150.0 mg/kg/injection, schedule: Q01DX001 (ip), vehicle: Klucel (hydroxypropylcellulose) (HPC)
  T/C: 101 % of control

## CN(C)c1nnnn1-c1ccccc1
dose: 100.0 mg/kg/injection, schedule: Q04DX003 (ip), vehicle: saline
  T/C: 100 % of control
dose: 200.0 mg/kg/injection, schedule: Q04DX003 (ip), vehicle: saline
  T/C: 96 % of control
dose: 400.0 mg/kg/injection, schedule: Q04DX003 (ip), vehicle: saline
  T/C: 105 % of control

## Cc1ccc(NC(=O)C(Cl)(Cl)Cl)cc1[N+](=O)[O-]
[1]
  T/C: 94 % of control
[2]
  T/C: 100 % of control
[3]
  T/C: 104 % of control

## Cc1cc(=O)[nH]c2c1CCCC2
[5]
  T/C: 92 % of control
[6]
  T/C: 97 % of control
[7]
  T/C: 101 % of control

## COC1(c2ccccc2)OC(C(C)(C)C)=NC1(C)C (configuration not stated)
[5]
  T/C: 92 % of control
[6]
  T/C: 108 % of control

## CC(=O)OCC1OC(N2C(=O)/C(=C/c3cccs3)SC2=S)C(OC(C)=O)C(OC(C)=O)C1OC(C)=O (configuration not stated)
dose: 25.0 mg/kg/injection, schedule: Q01DX005 (ip), vehicle: other
  T/C: 96 % of control
dose: 50.0 mg/kg/injection, schedule: Q01DX005 (ip), vehicle: other
  T/C: 100 % of control
dose: 100.0 mg/kg/injection, schedule: Q01DX005 (ip), vehicle: other
  T/C: 97 % of control
dose: 200.0 mg/kg/injection, schedule: Q01DX005 (ip), vehicle: other
  T/C: 88 % of control

## Nc1nc(N)c2nc(CNc3ccc(C(=O)NC(CC(=O)O)C(=O)O)cc3)cnc2n1 (configuration not stated)
dose: 1.56 mg/kg/injection, schedule: Q01DX Z (ip), vehicle: saline
  T/C: 114 % of control
dose: 3.12 mg/kg/injection, schedule: Q01DX009 (ip), vehicle: saline
  T/C: 110 % of control
dose: 3.13 mg/kg/injection, schedule: Q01DX Z (ip), vehicle: saline
  T/C: 108 % of control
dose: 25.0 mg/kg/injection, schedule: Q01DX009 (ip), vehicle: saline
  T/C: 151 % of control
dose: 25.0 mg/kg/injection, schedule: Q01DX Z (ip), vehicle: saline
  T/C: 172 % of control
dose: 50.0 mg/kg/injection, schedule: Q01DX009 (ip), vehicle: saline
  T/C: 166 % of control
dose: 50.0 mg/kg/injection, schedule: Q01DX Z (ip), vehicle: saline
  T/C: 118 % of control
dose: 100.0 mg/kg/injection, schedule: Q01DX009 (ip), vehicle: saline
  T/C: 95 % of control
dose: 100.0 mg/kg/injection, schedule: Q01DX Z (ip), vehicle: saline
  T/C: 114 % of control and 88 % of control
dose: 200.0 mg/kg/injection, schedule: Q01DX Z (ip), vehicle: saline
  T/C: 95 % of control

## Nc1nc(N)c2nc(CNC3CCCCC3)cnc2n1
dose: 20.0 mg/kg/injection, schedule: Q01DX009 (ip), vehicle: Klucel (hydroxypropylcellulose) (HPC)
  T/C: 95 % of control
dose: 40.0 mg/kg/injection, schedule: Q01DX009 (ip), vehicle: Klucel (hydroxypropylcellulose) (HPC)
  T/C: 93 % of control
dose: 80.0 mg/kg/injection, schedule: Q01DX009 (ip), vehicle: Klucel (hydroxypropylcellulose) (HPC)
  T/C: 97 % of control

## CC(C)NC(=O)Oc1ccccc1
dose: 100.0 mg/kg/injection, schedule: Q04DX002 (ip), vehicle: Klucel (hydroxypropylcellulose) (HPC)
  T/C: 93 % of control
dose: 200.0 mg/kg/injection, schedule: Q04DX002 (ip), vehicle: Klucel (hydroxypropylcellulose) (HPC)
  T/C: 110 % of control
dose: 400.0 mg/kg/injection, schedule: Q04DX002 (ip), vehicle: Klucel (hydroxypropylcellulose) (HPC)
  T/C: 96 % of control

## NC1CCCCCCC1O (configuration not stated)
dose: 5.0 mg/kg/injection, schedule: Q01DX009 (ip), vehicle: saline with Tween-80
  T/C: 105 % of control
dose: 10.0 mg/kg/injection, schedule: Q01DX009 (ip), vehicle: saline with Tween-80
  T/C: 94 % of control
dose: 20.0 mg/kg/injection, schedule: Q01DX009 (ip), vehicle: saline with Tween-80
  T/C: 100 % of control

## CSC1SCCCS1
dose: 12.5 mg/kg/injection, schedule: Q04DX002 (ip), vehicle: saline with Tween-80
  T/C: 92 % of control
dose: 25.0 mg/kg/injection, schedule: Q04DX002 (ip), vehicle: saline with Tween-80
  T/C: 98 % of control
dose: 50.0 mg/kg/injection, schedule: Q04DX002 (ip), vehicle: saline with Tween-80
  T/C: 88 % of control

## O=C(CC(=O)c1ccccc1)CC(=O)c1ccccc1
dose: 100.0 mg/kg/injection, schedule: Q01DX001 (ip), vehicle: Klucel (hydroxypropylcellulose) (HPC)
  T/C: 97 % of control
dose: 200.0 mg/kg/injection, schedule: Q01DX001 (ip), vehicle: Klucel (hydroxypropylcellulose) (HPC)
  T/C: 100 % of control
dose: 400.0 mg/kg/injection, schedule: Q01DX001 (ip), vehicle: Klucel (hydroxypropylcellulose) (HPC)
  T/C: 94 % of control

## O=C(CCCl)OCC#CCOC(=O)CCCl
[1]
  T/C: 101 % of control
[2]
  T/C: 94 % of control

## CCCCCCCCCCP(=O)(CCCC)CCCC
dose: 1.56 mg/kg/injection, schedule: Q01DX009 (ip), vehicle: Klucel (hydroxypropylcellulose) (HPC)
  T/C: 92 % of control
dose: 3.12 mg/kg/injection, schedule: Q01DX009 (ip), vehicle: Klucel (hydroxypropylcellulose) (HPC)
  T/C: 95 % of control
dose: 6.25 mg/kg/injection, schedule: Q01DX009 (ip), vehicle: Klucel (hydroxypropylcellulose) (HPC)
  T/C: 97 % of control
dose: 12.5 mg/kg/injection, schedule: Q01DX009 (ip), vehicle: Klucel (hydroxypropylcellulose) (HPC)
  T/C: 95 % of control
[8]
  T/C: 100 % of control

## COc1ccc(S(=O)(=O)Nc2cccc(C(F)(F)F)c2)cc1
[8]
  T/C: 102 % of control
dose: 200.0 mg/kg/injection, schedule: Q01DX009 (ip), vehicle: Klucel (hydroxypropylcellulose) (HPC)
  T/C: 102 % of control
dose: 400.0 mg/kg/injection, schedule: Q01DX009 (ip), vehicle: Klucel (hydroxypropylcellulose) (HPC)
  T/C: 100 % of control

## Cc1oncc1/C=C/c1ccon1
dose: 100.0 mg/kg/injection, schedule: Q04DX003 (ip), vehicle: other
  T/C: 96 % of control
dose: 200.0 mg/kg/injection, schedule: Q04DX003 (ip), vehicle: other
  T/C: 91 % of control

## Cc1ccnc2c(N)cccc12
[4]
  T/C: 98 % of control

## N#CC(c1ccccc1)C(c1ccccc1)C(C(=O)c1ccccc1)c1ccccc1 (configuration not stated)
[1]
  T/C: 100 % of control
[2]
  T/C: 93 % of control
[3]
  T/C: 90 % of control
